From patent publication US10751802B1, “Method of producing silver nanoparticles using red sand” (KING SAUD UNIVERSITY, priority 2019, dated 2020)

Experiments:
S. aureus = assay: combination effect of silver nanoparticles with antibiotic discs; assay type: cell-based, Staphylococcus aureus; details: antibiotic disc alone; RD 5 μg, E 15 μg, TOB 10 μg, TGC 15 μg, MXF 5 μg, LEV 5 μg; Mueller-Hinton agar, 24 hours at 37° C.
Description: (§1) Moreover, combination effects were determined by first adjusting the turbidity of the previously mentioned bacterial strains to 0.5 MacFarland standards (10^8 CFU/mL), and swabbing the strains on Mueller-Hinton agar. Antibiotic discs alone were used as controls, respectively. […] To study the combination effect, 30 μl of the exemplary silver nanoparticles were loaded on the antibiotics discs then placed on the swabbed medium. The plates were incubated for 24 hours at 37° C. The diameters of the inhibition zones were measured and reported in millimeters.

S. typhimurium = assay: as above; assay type: cell-based, Salmonella typhimurium; details: antibiotic disc alone; F 100 μg, FOS 50 μg, TE 30 μg, FEP 30 μg, MXF 5 μg, LEV 5 μg; Mueller-Hinton agar, 24 hours at 37° C.
Description: as §1

P. aeruginosa = assay: as above; assay type: cell-based, Pseudomonas aeruginosa; details: antibiotic disc alone; F 100 μg, FOS 50 μg, TE 30 μg, FEP 30 μg, MXF 5 μg, LEV 5 μg; Mueller-Hinton agar, 24 hours at 37° C.
Description: as §1

E. coli = assay: as above; assay type: cell-based, Escherichia coli; details: antibiotic disc alone; F 100 μg, FOS 50 μg, TE 30 μg, FEP 30 μg, MXF 5 μg, LEV 5 μg; Mueller-Hinton agar, 24 hours at 37° C.
Description: as §1

A. baumannii = assay: as above; assay type: cell-based, Acinetobacter baumannii; details: antibiotic disc alone; F 100 μg, FOS 50 μg, TE 30 μg, FEP 30 μg, MXF 5 μg, LEV 5 μg; Mueller-Hinton agar, 24 hours at 37° C.
Description: as §1

P. vulgaris = assay: as above; assay type: cell-based, Proteus vulgaris; details: antibiotic disc alone; F 100 μg, FOS 50 μg, TE 30 μg, FEP 30 μg, MXF 5 μg, LEV 5 μg; Mueller-Hinton agar, 24 hours at 37° C.
Description: as §1

[1] = test system: Acinetobacter baumannii (ATCC 19606); assay: agar well diffusion assay, inhibition zone; assay type: cell-based; details: standard antibiotic disc CIP (5), control
Description: (§2) Antibacterial activity of the exemplary silver nanoparticles, prepared as described above (except that centrifuging and drying were omitted, i.e., antimicrobial testing was performed without removing the silver nanoparticles from the red sand extract), was evaluated against pathogenic bacterial reference strains of Acinetobacter baumannii (ATCC 19606), Salmonella typhimurium (ATCC 14028), Escherichia coli (ATCC 35218), Pseudomonas aeruginosa (27853 AT), Staphylococcus aureus (25923 AT) and Proteus vulgaris (ATCC 49132) using an agar well diffusion assay. In particular, the antibacterial activity against each strain was determined by measuring the inhibition zone. Standard antibiotic discs, including Gentamycin (CN10 μg), Augmantin (AMC 30 μg), and Ciprofloxacin (CIP 5 μg), were used as controls.

[2] = test system: Escherichia coli (ATCC 35218); assay: agar well diffusion assay, inhibition zone; assay type: cell-based; details: standard antibiotic disc CIP (5), control
Description: as §2

[3] = test system: Pseudomonas aeruginosa (27853 AT); assay: agar well diffusion assay, inhibition zone; assay type: cell-based; details: standard antibiotic disc CIP (5), control
Description: as §2

[4] = test system: Staphylococcus aureus (25923 AT); assay: agar well diffusion assay, inhibition zone; assay type: cell-based; details: standard antibiotic disc CN (10), control
Description: as §2

[5] = test system: Salmonella typhimurium (ATCC 14028); assay: agar well diffusion assay, inhibition zone; assay type: cell-based; details: standard antibiotic disc CN (10), control
Description: as §2

[6] = test system: Proteus vulgaris (ATCC 49132); assay: agar well diffusion assay, inhibition zone; assay type: cell-based; details: standard antibiotic disc AMC (30), control
Description: as §2

Row | Compound | C: inhibition zone of the antibiotic alone as a control (S. aureus) [mm] | C: inhibition zone of the antibiotic alone as a control (S. typhimurium) [mm] | C: inhibition zone of the antibiotic alone as a control (P. aeruginosa) [mm] | C: inhibition zone of the antibiotic alone as a control (E. coli) [mm] | C: inhibition zone of the antibiotic alone as a control (A. baumannii) [mm] | C: inhibition zone of the antibiotic alone as a control (P. vulgaris) [mm] | other results
1 | CO[C@H]1/C=C/O[C@@]2(C)Oc3c(C)c(O)c4c(O)c(c(/C=N/N5CCN(C)CC5)c(O)c4c3C2=O)NC(=O)/C(C)=C\C=C\[C@H](C)[C@H](O)[C@@H](C)[C@@H](O)[C@@H](C)[C@H](OC(C)=O)[C@@H]1C [Rifampicin] | 34.5 | – | – | – | – | – | –
2 | CN(C)c1cc(NC(=O)CNC(C)(C)C)c(O)c2c1C[C@H]1C[C@H]3[C@H](N(C)C)C(O)=C(C(N)=O)C(=O)[C@@]3(O)C(O)=C1C2=O [Tigecycline] | 24 | – | – | – | – | – | –
3 | C[C@H]1COc2c(N3CCN(C)CC3)c(F)cc3c(=O)c(C(=O)O)cn1c23 [Levofloxacin] | 27 | 30 | 27 | 35 | 23 | 33 | –
4 | CC[C@H]1OC(=O)[C@H](C)[C@@H](O[C@H]2C[C@@](C)(OC)[C@@H](O)[C@H](C)O2)[C@H](C)[C@@H](O[C@@H]2O[C@H](C)C[C@H](N(C)C)[C@H]2O)[C@](C)(O)C[C@@H](C)C(=O)[C@H](C)[C@@H](O)[C@]1(C)O [Erythromycin] | 32 | – | – | – | – | – | –
5 | O=C(O)c1cn(C2CC2)c2cc(N3CCNCC3)c(F)cc2c1=O [CIP, Ciprofloxacin] | – | – | – | – | – | – | Diameter of inhibition zone, standard antibiotic disc [1]: CIP (5) = 25 mm; Diameter of inhibition zone, standard antibiotic disc [2]: CIP (5) = 33 mm; Diameter of inhibition zone, standard antibiotic disc [3]: CIP (5) = 31 mm
6 | NC[C@H]1O[C@H](O[C@H]2[C@H](O)[C@@H](O[C@H]3O[C@H](CO)[C@@H](O)[C@H](N)[C@H]3O)[C@H](N)C[C@@H]2N)[C@H](N)C[C@@H]1O [Tobramycin] | 26 | – | – | – | – | – | –
7 | CN(C)[C@@H]1C(O)=C(C(N)=O)C(=O)[C@@]2(O)C(O)=C3C(=O)c4c(O)cccc4[C@@](C)(O)[C@H]3C[C@@H]12 [Tetracycline] | – | 18 | 11.5 | 17 | 11.5 | 11. | –
8 | COc1c(N2C[C@@H]3CCCN[C@@H]3C2)c(F)cc2c(=O)c(C(=O)O)cn(C3CC3)c12 [Moxifloxacin] | 33 | 30 | 22.5 | 31 | 20 | 19. | –
9 | CO/N=C(\C(=O)N[C@@H]1C(=O)N2C(C(=O)[O-])=C(C[N+]3(C)CCCC3)CS[C@H]12)c1csc(N)n1 [Cefepime] | – | 23.5 | 11 | – | – | – | –
10 | C[C@@H]1O[C@@H]1P(=O)(O)O [Fosfomycin] | – | 20.5 | 27 | 24 | 10 | 11 | –
11 | O=C1CN(/N=C/c2ccc([N+](=O)[O-])o2)C(=O)N1 [Nitrofurantoin] | – | 23.5 | – | 21.5 | 11 | 10 | –
12 | Gentamycin [CN] | – | – | – | – | – | – | Diameter of inhibition zone, standard antibiotic disc [4]: CN (10) = 30 mm; Diameter of inhibition zone, standard antibiotic disc [5]: CN (10) = 24 mm
13 | Augmantin [AMC] | – | – | – | – | – | – | Diameter of inhibition zone, standard antibiotic disc [6]: AMC (30) = 32 mm
